This note sets out measurements from patent US9539298B2, “Lissencephaly therapeutic agent” (OSAKA CITY UNIVERSITY, priority 2010, dated 2017).

The target in this assay is T1, μ-calpain (derived from human red blood cells) (Homo sapiens, UniProt P07384).
T1 construct: derived from human red blood cells; purchased Cosmo Bio Co., Ltd; host or cells: human red blood cells (tissue-purified)
T1 sequence (P07384 1-714): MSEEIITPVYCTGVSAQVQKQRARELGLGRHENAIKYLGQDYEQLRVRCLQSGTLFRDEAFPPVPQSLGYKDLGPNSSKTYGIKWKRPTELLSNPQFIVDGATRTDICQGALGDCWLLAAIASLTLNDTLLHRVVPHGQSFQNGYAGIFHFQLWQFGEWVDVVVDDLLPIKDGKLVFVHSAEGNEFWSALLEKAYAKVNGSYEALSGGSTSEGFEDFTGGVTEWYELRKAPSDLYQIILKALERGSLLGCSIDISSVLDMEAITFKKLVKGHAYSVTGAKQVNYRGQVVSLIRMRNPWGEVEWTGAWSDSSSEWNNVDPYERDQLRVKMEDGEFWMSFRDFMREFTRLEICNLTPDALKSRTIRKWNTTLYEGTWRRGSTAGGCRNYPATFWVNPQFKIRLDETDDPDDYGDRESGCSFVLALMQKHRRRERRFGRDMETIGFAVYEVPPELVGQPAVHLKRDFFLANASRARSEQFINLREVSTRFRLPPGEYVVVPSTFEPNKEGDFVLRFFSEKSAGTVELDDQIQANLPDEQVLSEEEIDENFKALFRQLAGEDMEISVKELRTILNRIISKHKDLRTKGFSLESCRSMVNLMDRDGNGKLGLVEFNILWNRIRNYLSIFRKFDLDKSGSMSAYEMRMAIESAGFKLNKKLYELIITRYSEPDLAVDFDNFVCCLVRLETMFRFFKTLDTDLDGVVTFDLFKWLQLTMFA
T1 sequence (P04632 1-268 partner): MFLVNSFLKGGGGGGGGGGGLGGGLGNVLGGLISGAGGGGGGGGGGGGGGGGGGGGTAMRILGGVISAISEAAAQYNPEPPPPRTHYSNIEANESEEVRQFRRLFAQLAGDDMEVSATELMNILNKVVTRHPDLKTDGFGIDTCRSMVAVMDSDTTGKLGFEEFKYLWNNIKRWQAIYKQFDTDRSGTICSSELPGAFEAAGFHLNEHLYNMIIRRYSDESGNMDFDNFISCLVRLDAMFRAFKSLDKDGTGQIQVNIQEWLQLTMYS
As to the kind of experiment: Measurement of inhibitory activity against μ-calpain. The class given is biochemical. Particulars: casein substrate, 30° C., 60 minutes; read-out: enzyme inhibitory activities (μM) μ-calpain. Here is the method: The inhibitory activity against μ-calpain and m-calpain was assayed according to a published method (Anal. Biochem. 1993, vol. 208, p. 387-392). More specifically, 200 μL of a reaction solution containing 0.5 mg/mL casein, 50 mM Tris-HCl buffer (pH 7.4), 20 mM dithiothreitol and 1.0 nmol μ-calpain (derived from human red blood cells, Cosmo Bio Co., Ltd.) or m-calpain (derived from porcine kidney, Cosmo Bio Co., Ltd.) was added to individual 2.5 μL portions of DMSO solution containing a varying concentration of a test sample in a 96-well plate. Then, 50 μL of 20 mM aqueous calcium chloride was added thereto, and reaction was performed at 30° C. for 60 minutes. 100 μL of the reaction solution was transferred to another 96-well plate, and purified water (50 μL) and 50% aqueous solution (100 μL) of Protein Assay Dye Reagent (available from Bio-Rad Laboratories, Inc.; catalogue No. 500-600) were added thereto. The reaction mixture was allowed to stand at room temperature for 15 minutes, and its absorbance was measured at 595 nm. The absorbance of a reaction mixture prepared in the same manner as mentioned above, except that a DMSO solution containing no sample was used as a control value; and the absorbance of a reaction mixture prepared in the same manner as mentioned above, except that a 1 mM aqueous EDTA solution (50 μL) was used in place of 20 mM aqueous calcium chloride, was used as a blank value. […] Inhibition rate (%){1−(measured value−blank test value)/(control value−blank test value)}×100
The concentrations (IC50) are shown in Table 1 as enzyme (calpain) inhibitory activities (μM).

For the molecule `COCCOCCOC(=O)N[C@@H](CC(C)C)C(=O)N[C@@H](Cc1ccccc1)C(=O)C(=O)NC1CC1` [compound 17, ((1S)-1-((((1S)-1-Benzyl-2,3-dioxo-3-(cyclopropylamino)propyl)amino)carbonyl)-3-methylbutyl)carbamic acid 5-methoxy-3-oxapentyl ester], the IC50 was found to be 0.17 µM.
